Here are results for 9 compounds from patent US20170240535A1, “HDAC1/2 INHIBITORS FOR THE TREATMENT OF NEURODEGENERATIVE AND/OR COGNITIVE DISORDERS” (Regenacy Pharmaceuticals, LLC, priority 2016, published 2017).

Series [1] is described as follows: Pharmacokinetics in plasma and brain after IV administration. It is filed as in vivo. The following applies: IV 1 mg/kg, male C57BL/6 mice; for Kp / Cmax / Tmax / half-life / AUC(0-inf) / AUC(0-t) / MRT inf / clearance / Vd: mouse; for Kp: brain/plasma, read-out: AUCbrain/AUCplasma; for Vd: read-out: Vss. Here is the method: Male C57Bl/6 mice were fasted overnight. Compounds of the invention were dissolved in dimethyl acetamide at 10 times the final concentration, then Solutol HS 15 (BASF) was added to a final concentration of 10%. Finally 80% saline was added and vortexed to achieve a clear solution. Fifteen animals were injected via the tail vein with 1 mg/kg compound. Blood was collected via retro orbital puncture into K2EDTA tubes at 5 minutes, 15 minutes, 30 minutes, 1 hour, 2 hours, 4 hours, 8 hours and 24 hours after dosing. The blood was centrifuged at 2000 g for 5 minutes at 4° C. to obtain plasma. The plasma was extracted with acetonitrile and the level of compound was analyzed by LC/MS/MS. The level of compound in plasma was calculated from a standard curve in mouse plasma. For brain levels, animals were sacrificed at 5 minutes, 15 minutes, 1 hour, 4 hours and 24 hours. Brains were removed and homogenized in acetonitrile and extracted. The level of compound in brain was calculated from a standard curve in mouse brain tissue. The IV clearance and area under the curve were calculated using WinNonLin software. The ratio of area under the curve for plasma and brain samples was calculated to produce the brain/plasma ratio.

A further series concerns the target T1, HDAC1 (Homo sapiens, UniProt Q13547).
T1 construct: purchased BPS Biosciences
Put plainly: HDAC enzyme assay, HDAC1. The following applies: enzyme and compound incubated 24 hours at room temperature. It is filed as biochemical. As to the method: (§1) Compounds for testing were diluted in DMSO to 50 fold the final concentration and a ten point three fold dilution series was made. The compounds were diluted in assay buffer (50 mM HEPES, pH 7.4, 100 mM KCl, 0.001% Tween-20, 0.05% BSA, 20 μM TCEP) to 6 fold their final concentration. The HDAC enzymes (purchased from BPS Biosciences) were diluted to 1.5 fold their final concentration in assay buffer. The tripeptide substrate and trypsin at 0.05 μM final concentration were diluted in assay buffer at 6 fold their final concentration. The final enzyme concentrations used in these assays were 3.3 ng/ml (HDAC1), 0.2 ng/ml (HDAC2) and 0.08 ng/ml (HDAC3). The final substrate concentrations used were 16 μM (HDAC1), 10 μM (HDAC2) and 17 μM (HDAC3). Five μl of compound and 20 μl of enzyme were added to wells of a black, opaque 384 well plate in duplicate. Enzyme and compound were incubated together at room temperature for 24 hours. Five μl of substrate was added to each well, the plate was shaken for 60 seconds and placed into a Victor 2 microtiter plate reader. The development of fluorescence was monitored for 60 min and the linear rate of the reaction was calculated. The IC50 was determined using Graph Pad Prism by a four parameter curve fit.

Another series has as its target T2, HDAC2 (Homo sapiens, UniProt Q92769).
T2 construct: purchased BPS Biosciences
Put plainly: HDAC enzyme assay, HDAC2. It is filed as biochemical. As to conditions: enzyme and compound incubated 24 hours at room temperature. As to the method:
as §1

The target of a further series is T3, HDAC3 (Homo sapiens, UniProt O15379).
T3 construct: purchased BPS Biosciences
T3 sequence (O15379 whole entry): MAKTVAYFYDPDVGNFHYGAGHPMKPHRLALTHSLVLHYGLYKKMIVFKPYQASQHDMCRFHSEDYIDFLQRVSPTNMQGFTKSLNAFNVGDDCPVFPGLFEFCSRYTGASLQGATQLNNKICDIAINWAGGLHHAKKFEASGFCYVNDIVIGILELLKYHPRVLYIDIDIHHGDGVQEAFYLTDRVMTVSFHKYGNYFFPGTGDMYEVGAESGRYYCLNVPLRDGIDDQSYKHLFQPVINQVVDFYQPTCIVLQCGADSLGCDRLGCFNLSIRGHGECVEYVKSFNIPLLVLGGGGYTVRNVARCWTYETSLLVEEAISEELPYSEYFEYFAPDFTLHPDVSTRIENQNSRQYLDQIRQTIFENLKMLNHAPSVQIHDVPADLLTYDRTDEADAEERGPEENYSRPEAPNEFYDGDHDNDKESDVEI
T3 sequence (Q9Y618 395-489 partner limits assumed): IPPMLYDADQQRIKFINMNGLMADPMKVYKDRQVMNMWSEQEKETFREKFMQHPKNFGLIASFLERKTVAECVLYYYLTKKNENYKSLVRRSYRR
The series is described as follows: HDAC enzyme assay, HDAC3. In kind it is biochemical. The following applies: enzyme and compound incubated 24 hours at room temperature. Here is the method: as §1

Series [2] in a line: Comparison of brain penetrance between quinolines and isoquinolines (IP dosing). In kind it is in vivo. The following applies: IP 5 mg/kg, C57Bl/6 mice; for Kp / AUC: mouse; for Kp: brain/plasma, read-out: ratio (AUC brain / AUC plasma); for AUC: plasma. As to the method:
Comparator B (see Table 7) and Compound 2 were dosed in C57Bl/6 mice at 5 mg/kg in 10% DMAC/10% Solutol HS15/80% saline. Comparator A (see Table 7) was dosed at 5 mg/kg in 5% dextrose/water. All compounds were dosed IP. Mice were sacrificed at 5, 15, 30 minutes and 1, 2, 4, 8 and 24 hours after dosing. Plasma concentration of compound was determined at all time points by LC/MS/MS. Brain concentration was determined at 1, 4, 8 and 24 hours after dosing. The AUC was calculated using WinNonLin software. The results are shown in Table 7, where plasma AUC is expressed as hr*ng/mL and brain AUC is expressed as hr*ng/g.

Structures are written as SMILES.

T2 sequence (Q92769 whole entry): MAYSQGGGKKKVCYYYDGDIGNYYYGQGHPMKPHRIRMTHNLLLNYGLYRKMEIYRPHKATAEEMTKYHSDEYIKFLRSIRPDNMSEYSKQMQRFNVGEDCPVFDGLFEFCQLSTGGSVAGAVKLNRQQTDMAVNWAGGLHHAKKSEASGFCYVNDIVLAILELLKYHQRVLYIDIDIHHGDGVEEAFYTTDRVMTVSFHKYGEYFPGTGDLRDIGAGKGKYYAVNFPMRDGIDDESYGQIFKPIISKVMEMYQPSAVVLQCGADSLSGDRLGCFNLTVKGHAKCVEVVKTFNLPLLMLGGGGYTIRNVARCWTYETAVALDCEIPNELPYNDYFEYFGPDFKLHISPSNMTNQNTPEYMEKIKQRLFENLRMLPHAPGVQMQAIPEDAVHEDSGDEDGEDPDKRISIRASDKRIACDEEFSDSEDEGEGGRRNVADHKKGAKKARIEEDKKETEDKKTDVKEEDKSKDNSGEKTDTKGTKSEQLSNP
T1 sequence (Q13547 whole entry): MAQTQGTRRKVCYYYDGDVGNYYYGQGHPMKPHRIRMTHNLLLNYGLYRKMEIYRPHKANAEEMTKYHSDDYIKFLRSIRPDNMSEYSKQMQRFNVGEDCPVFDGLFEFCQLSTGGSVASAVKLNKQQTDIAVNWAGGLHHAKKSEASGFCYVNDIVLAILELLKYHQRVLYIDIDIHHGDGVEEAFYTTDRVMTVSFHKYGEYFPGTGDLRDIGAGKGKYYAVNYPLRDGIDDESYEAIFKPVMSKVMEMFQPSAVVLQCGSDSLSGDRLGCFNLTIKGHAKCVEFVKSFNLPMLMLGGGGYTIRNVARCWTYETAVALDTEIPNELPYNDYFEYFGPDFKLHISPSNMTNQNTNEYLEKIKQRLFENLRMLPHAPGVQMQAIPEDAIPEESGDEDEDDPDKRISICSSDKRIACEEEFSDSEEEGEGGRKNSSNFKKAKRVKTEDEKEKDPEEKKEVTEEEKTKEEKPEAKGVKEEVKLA

For the compound `Nc1ccc(-c2ccccc2)cc1NC(=O)c1cc2ccc(N3CCNCC3=O)cc2cn1` [Compound 4], in series [1] (brain), the AUCINF amounted to 390 ng·h/g, the AUClast is 319 ng·h/g, the peak level (Cmax) was 145 ng/g and the time to peak (Tmax) amounted to 0.25 h. The compound also showed a half-life in series [1] (brain) of 1.66 h. In series [1], the Kp was 0.1. In series [1] (plasma, PK cassette), this compound had an AUC(0-inf) of 3820 ng·h/mL, an AUC(0-t) of 3470 ng·h/mL, an MRT inf of 8.72 h and a clearance of 4.37 mL/min/kg. Moreover, in series [1] (plasma, PK cassette), the half-life is 7.71 h and the Vd stood at 2.28 L/kg. On HDAC1, this compound yielded an IC50 of 6 nM. Also, the IC50 against HDAC2 was determined as 8 nM. In addition, the IC50 on HDAC3 came to 182 nM.
Take `Nc1ccc(-c2cccs2)cc1NC(=O)c1cc2ccc(N3CCNCC3)cc2cn1` [Compound 2]: in series [2], the AUC brain came to 23283 ng·h/g, the Kp was 7.2 and the AUC was 3230 ng·h/mL. Moreover, in series [1], the “brain penetrance (from brain/plasma AUC ratios)” value was “highly brain penetrant” and the Kp was 8.33. Also, in series [1] (brain), the AUCINF stood at 13461 ng·h/g, the AUClast stood at 11474 ng·h/g, the concentration peaked (Cmax) at 783 ng/g and the Tmax stood at 1 h. The same compound gave a half-life in series [1] (brain) of 9.3 h. In series [1] (plasma, PK cassette), the AUC(0-inf) amounted to 1620 ng·h/mL, the area under the curve AUC(0-t) worked out at 1560 ng·h/mL, the mean residence time MRT inf worked out at 6.97 h and the clearance is 10.3 mL/min/kg. In addition, in series [1] (plasma, PK cassette), the half-life is 5.29 h and the Vd is 4.31 L/kg. Half-maximal inhibition on HDAC1 (IC50) was put at 3 nM. Half-maximal inhibition against HDAC2 (IC50) was put at 10 nM. On HDAC3, this compound had an IC50 of 43 nM.
As to `Nc1ccc(-c2ccncc2)cc1NC(=O)c1cc2ccc(N3CCNCC3)cc2cn1` [Compound 3], in series [1] (brain), the AUCINF was 1439 ng·h/g, the AUClast stood at 1237 ng·h/g, the Cmax stood at 126 ng/g and the Tmax stood at 0.25 h. This compound also had a half-life in series [1] (brain) of 8.63 h. In addition, in series [1], the Kp is 1.8. In series [1] (plasma, PK cassette), this compound showed an AUC(0-inf) of 799 ng·h/mL, an AUC(0-t) of 770 ng·h/mL, an MRT inf of 5.45 h and a clearance of 20.8 mL/min/kg. In series [1] (plasma, PK cassette), the half-life is 5.68 h and the Vd came out at 6.82 L/kg. The same compound came in with an IC50 against HDAC1 of 7 nM. Further, the midpoint of inhibition against HDAC2, the IC50, lay at 8 nM. The compound further displayed an IC50 at HDAC3 of 74 nM.
On to `Nc1ccc(-c2cccs2)cc1NC(=O)c1cnc2cc(N3CCNCC3)ccc2c1` [Comparator B], for which, in series [2], the AUC brain is 655 ng·h/g, the Kp came out at 0.06 and the AUC was 10800 ng·h/mL.
Regarding `Nc1ccc(-c2cccs2)cc1NC(=O)c1ccc2nc(N3CCNCC3)ccc2c1` [Comparator A], in series [2], the AUC brain is 2092 ng·h/g, the Kp came to 0.16 and the AUC is 12900 ng·h/mL.
In the case of `Nc1ccc(-c2cccs2)cc1NC(=O)c1cc2ccc(NC(=O)C3CCCN3)cc2cn1` (centres unmarked) [Compound 6], the figures for the IC50 against HDAC1, against HDAC2 and against HDAC3 were 5 nM, 19 nM and 121 nM, respectively.
The like results for `CN(C)CCNc1ccc2cc(C(=O)Nc3cc(-c4cccs4)ccc3N)ncc2c1` [Compound 5] were, in that order, 2 nM, 6 nM and 19 nM.
Take `CN1CCCC1C(=O)Nc1ccc2cc(C(=O)Nc3cc(-c4cccs4)ccc3N)ncc2c1` (centres unmarked) [Compound 7]: the figures for the IC50 against HDAC1, at HDAC2 and at HDAC3 were 3 nM, 10 nM and 66 nM, respectively.
For the compound `Nc1ccc(-c2ccc(F)cc2)cc1NC(=O)c1cc2ccc(N3CCNCC3)cc2cn1` [Compound 9], in series [1], the “brain penetrance (from brain/plasma AUC ratios)” value is given as “highly brain penetrant” and the Kp is 10.3. Also, in series [1] (brain), the AUCINF was determined as 9607 ng·h/g, the AUClast came to 9444 ng·h/g, the Cmax was 1000 ng/g and the Tmax was found to be 1 h. In series [1] (brain), this compound had a half-life of 4.4 h.

A word on the Cmax: it is the peak of the concentration-time curve. As a reminder, the Tmax is the time from dosing to the highest level. In general, half-life refers to the time in which the quantity being followed falls by half. High values mean slow decline, low ones rapid decline. For orientation: AUC(0-inf) means the area under the concentration-time curve extrapolated to infinity. Lower therefore signals low exposure. In general, AUC(0-t) refers to exposure summed from dosing to a finite time, without extrapolation to infinity. Higher therefore signals high exposure. What is called MRT inf is the average time that molecules of a dose stay in the body. What is called clearance is the volume of plasma or blood freed of the substance per unit of time. Read a high clearance as a high capacity for elimination. One may read the IC50 as the concentration needed to halve the response being measured. For orientation: AUC means the area under the concentration-time curve, a measure of exposure.
